# In ChEMBL document CHEMBL1201862, “PubChem BioAssay data set” (2004):
# The source made the active and inactive calls.
# Test system: HEK293
# Assay: inhibitors of LMP1-driven NF-kB reporter, dose response, cell-based, HEK293, luciferase, cherry-pick (AID 588343)
# Type: functional
# Details: Homo sapiens
row,Structure (SMILES),AC50
1,Cc1ccccc1C(=O)N1CCN(c2ccc(NC(=O)c3ccco3)cc2Cl)CC1,2.45 µM (active)
2,COC(=O)CCNc1ccc2c(c1)OCCO2,1.9 µM (active)
3,S=C(N/N=C/c1ccc2ncccc2c1)Nc1cccnc1,1.59 µM (active)
4,COc1cc(C(=O)Oc2ccccc2/C=N/NC(=O)c2ccc(C)c(Cl)c2)cc(OC)c1OC,12.9 µM (active)
5,Cc1cc(/C=C2\Cc3ccccc3C2=O)c(C)n1-c1ccccc1,1.87 µM (active)
6,Cc1csc(SCC(=O)c2cc(C)n(Cc3cccs3)c2C)n1,2.29 µM (active)

# Biological target: T1, Rac GTPase-activating protein 1 (Homo sapiens, UniProt Q9H0H5)
# T1 sequence (Q9H0H5 whole entry): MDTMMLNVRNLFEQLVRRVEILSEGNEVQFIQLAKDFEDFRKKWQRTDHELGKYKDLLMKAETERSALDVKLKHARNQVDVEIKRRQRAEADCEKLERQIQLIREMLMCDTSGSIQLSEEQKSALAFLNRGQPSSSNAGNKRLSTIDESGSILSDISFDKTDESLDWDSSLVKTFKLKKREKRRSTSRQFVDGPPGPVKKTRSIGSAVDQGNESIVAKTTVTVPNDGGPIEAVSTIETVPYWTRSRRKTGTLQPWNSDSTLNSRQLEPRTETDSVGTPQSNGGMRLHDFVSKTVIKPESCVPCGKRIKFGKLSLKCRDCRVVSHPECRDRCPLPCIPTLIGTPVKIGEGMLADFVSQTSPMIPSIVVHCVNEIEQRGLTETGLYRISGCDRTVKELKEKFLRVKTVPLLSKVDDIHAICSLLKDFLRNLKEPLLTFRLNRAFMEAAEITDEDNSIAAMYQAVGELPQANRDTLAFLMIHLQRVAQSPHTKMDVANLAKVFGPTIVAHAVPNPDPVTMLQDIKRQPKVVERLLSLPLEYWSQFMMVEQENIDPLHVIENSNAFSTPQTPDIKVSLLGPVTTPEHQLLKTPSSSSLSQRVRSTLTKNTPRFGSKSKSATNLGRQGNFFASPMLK
# Assay: MgcRacGAP GTPase-activating activity inhibitors, confirmation, biochemical, ADP Hunter fluorescence, primary and confirmatory (AID 624330)
# Type: functional
# Details: not given
row,Structure (SMILES),IC50
1,COC(=O)CCNc1ccc2c(c1)OCCO2,251 µM (active)
2,c1nc2nc[nH]c(SSc3[nH]cnc4ncnc3-4)c-2n1,75.2 µM (active)

# Test system: not listed separately
# Assay: cytotoxicity toward NIH3T3 fibroblasts, dose response, counter-screen, cell-based, ATP luminescence, mouse fibroblasts (AID 2010);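 further: cells exposed to compound for about 90 hours before reading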
# Type: functional
# Details: not given
row,Structure (SMILES),EC50
1,COc1cc(C(=O)Oc2ccccc2/C=N/NC(=O)c2ccc(C)c(Cl)c2)cc(OC)c1OC,> 60 µM (not active)
2,Fc1cccc(Cl)c1CNc1ccc(N2CCCC2)cc1,> 60 µM (not active)

# Test system: not listed separately
# Assay: inhibitors of firefly luciferase expression or activity, dose response, H4 neuroglioma cells, luminescence (AID 1990)
# Type: functional, cell-based
# Details: not given
row,Structure (SMILES),EC50
1,Cc1csc(SCC(=O)c2cc(C)n(Cc3cccs3)c2C)n1,8.74 µM (active)

# Biological target: T2, Alkaline phosphatase, tissue-nonspecific isozyme (Homo sapiens, UniProt P05186)
# T2 sequence (P05186 whole entry): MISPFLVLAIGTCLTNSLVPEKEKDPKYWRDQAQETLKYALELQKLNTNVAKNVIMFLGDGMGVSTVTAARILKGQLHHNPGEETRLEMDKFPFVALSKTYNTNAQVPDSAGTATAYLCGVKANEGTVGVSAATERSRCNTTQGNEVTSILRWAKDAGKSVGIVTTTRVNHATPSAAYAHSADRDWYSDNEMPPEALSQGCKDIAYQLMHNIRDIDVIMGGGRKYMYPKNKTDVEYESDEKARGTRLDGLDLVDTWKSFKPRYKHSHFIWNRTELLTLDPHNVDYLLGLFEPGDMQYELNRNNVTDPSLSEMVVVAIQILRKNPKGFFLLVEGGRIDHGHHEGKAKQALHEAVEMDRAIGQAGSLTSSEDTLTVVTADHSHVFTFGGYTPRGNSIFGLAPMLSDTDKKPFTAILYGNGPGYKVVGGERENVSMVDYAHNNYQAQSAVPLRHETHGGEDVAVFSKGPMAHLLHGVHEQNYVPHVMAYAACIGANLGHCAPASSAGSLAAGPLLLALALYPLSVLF
# Assay: human TNAP enzyme inhibitors, SAR follow-up, biochemical, luminescent, dose response (AID 1056)
# Details: not given
row,Structure (SMILES),IC50
1,O=C1c2ccccc2C(=O)C1c1nc2ccccc2[nH]1,> 100 µM (inactive)
2,COc1ccc(NS(=O)(=O)c2ccc(OC)c(OC)c2)cn1,> 100 µM (inactive)
3,CC(C)c1ccc(-c2cc(C(=O)O)[nH]n2)cc1,> 100 µM (inactive)
4,COc1ccc(OC)c(NS(=O)(=O)c2cnc3ccccc3c2)c1,> 10 µM (inactive)
5,O=C1C2CC=C(Cl)CC2C(=O)N1c1nnc[nH]1 (stereo unspecified),> 100 µM (inactive)
6,Cn1ccnc1Sc1nc(Nc2ccccc2)nc(Nc2ccccc2)n1,> 100 µM (inactive)

# Biological target: T3, Heat shock factor protein 1 (Mus musculus, UniProt P38532)
# T3 sequence (P38532 whole entry): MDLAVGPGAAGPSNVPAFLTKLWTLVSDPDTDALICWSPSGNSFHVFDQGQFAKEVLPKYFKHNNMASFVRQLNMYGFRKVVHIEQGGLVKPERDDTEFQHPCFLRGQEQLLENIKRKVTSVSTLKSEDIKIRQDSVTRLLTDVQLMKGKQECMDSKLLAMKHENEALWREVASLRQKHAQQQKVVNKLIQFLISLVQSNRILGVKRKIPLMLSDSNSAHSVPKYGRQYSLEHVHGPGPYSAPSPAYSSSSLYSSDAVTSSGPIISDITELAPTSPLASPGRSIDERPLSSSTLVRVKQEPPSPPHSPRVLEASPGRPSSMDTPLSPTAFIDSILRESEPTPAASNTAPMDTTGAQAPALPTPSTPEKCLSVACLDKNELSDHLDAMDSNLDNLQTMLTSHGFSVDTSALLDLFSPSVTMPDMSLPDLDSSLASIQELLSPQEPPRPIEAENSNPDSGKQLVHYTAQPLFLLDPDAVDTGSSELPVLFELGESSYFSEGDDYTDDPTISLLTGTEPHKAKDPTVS
# Assay: inhibition of MG132-induced HSE-luciferase signal, confirmation, cell-based, NIH3T3, luminescence, dose retest (AID 2382);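 further: NIH3T3 fibroblasts with HSF1-driven luciferase reporter stressed by proteasome inhibitor MG132; luminescence from HSF1-driven luciferase expression after 8 hours of MG132 stress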
# Type: functional
# Details: not given
row,Structure (SMILES),EC50
1,COC(=O)CCNc1ccc2c(c1)OCCO2,1.73 µM (active)
2,Cc1cc(/C=C2\Cc3ccccc3C2=O)c(C)n1-c1ccccc1,< 0.16 µM (active)

# Biological target: Eukaryotic translation initiation factor 4E (Mus musculus, UniProt P63073)
# Assay: eIF4E–eIF4G protein interaction inhibitors, dose response, biochemical, TR-FRET (AID 855);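 further: potency for disrupting eIF4E binding to eIF4GI seen as loss of FRET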
# Type: functional
# Details: not given
# Sequence of Eukaryotic translation initiation factor 4E (P63073 whole entry): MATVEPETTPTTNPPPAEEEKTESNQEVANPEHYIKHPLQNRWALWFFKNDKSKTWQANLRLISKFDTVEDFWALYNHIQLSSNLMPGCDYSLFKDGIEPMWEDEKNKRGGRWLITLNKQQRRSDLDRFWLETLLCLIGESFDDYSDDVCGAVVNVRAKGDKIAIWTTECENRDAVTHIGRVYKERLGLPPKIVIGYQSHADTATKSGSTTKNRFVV
row,Structure (SMILES),IC50
1,Fc1cccc(Cl)c1CNc1ccc(N2CCCC2)cc1,50 µM (inactive)

# Test system: not listed separately
# Assay: inhibitors of intracellular T. cruzi replication, confirmation, NIH3T3 host cells, beta-gal luminescence (AID 2044);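 further: intracellular parasites grown in NIH/3T3 mouse fibroblasts as host cells; luminescent beta-galactosidase reporter signal from transgenic T. cruzi replicating inside host cells; inhibitors lower the luminescence signal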
# Type: functional, cell-based
# Details: not given
row,Structure (SMILES),EC50
1,COc1cc(C(=O)Oc2ccccc2/C=N/NC(=O)c2ccc(C)c(Cl)c2)cc(OC)c1OC,1.17 µM (active)
2,Fc1cccc(Cl)c1CNc1ccc(N2CCCC2)cc1,2.52 µM (active)

# Biological target: T4, Mannose-6-phosphate isomerase (Homo sapiens, UniProt P34949)
# T4 sequence (P34949 whole entry): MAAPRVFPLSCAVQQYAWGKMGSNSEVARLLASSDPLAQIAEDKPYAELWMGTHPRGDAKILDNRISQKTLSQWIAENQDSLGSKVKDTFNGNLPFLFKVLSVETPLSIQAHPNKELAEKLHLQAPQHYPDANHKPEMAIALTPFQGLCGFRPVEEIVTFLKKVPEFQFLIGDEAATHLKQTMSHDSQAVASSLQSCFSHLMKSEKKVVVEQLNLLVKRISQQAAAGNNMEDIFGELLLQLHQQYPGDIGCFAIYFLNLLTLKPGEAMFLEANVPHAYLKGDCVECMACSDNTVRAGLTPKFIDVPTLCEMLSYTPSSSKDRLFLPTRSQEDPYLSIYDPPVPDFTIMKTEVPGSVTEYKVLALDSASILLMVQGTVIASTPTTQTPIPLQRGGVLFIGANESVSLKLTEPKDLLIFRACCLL
# Assay: human PMI inhibitors, high substrate, primary screen, biochemical, fluorescence intensity, high mannose 6-phosphate (AID 1220)
# Details: not given
row,Structure (SMILES),IC50
1,Fc1cccc(Cl)c1CNc1ccc(N2CCCC2)cc1,30.5 µM (active)

# Biological target: Glucose-6-phosphate 1-dehydrogenase (Homo sapiens, UniProt P11413)
# Assay: human G6PD enzyme inhibitors, dose response, selectivity assay for P. falciparum G6PD inhibitor project, biochemical, fluorescence (AID 504792)
# Type: functional
# Details: not given
# Sequence of Glucose-6-phosphate 1-dehydrogenase (P11413 whole entry): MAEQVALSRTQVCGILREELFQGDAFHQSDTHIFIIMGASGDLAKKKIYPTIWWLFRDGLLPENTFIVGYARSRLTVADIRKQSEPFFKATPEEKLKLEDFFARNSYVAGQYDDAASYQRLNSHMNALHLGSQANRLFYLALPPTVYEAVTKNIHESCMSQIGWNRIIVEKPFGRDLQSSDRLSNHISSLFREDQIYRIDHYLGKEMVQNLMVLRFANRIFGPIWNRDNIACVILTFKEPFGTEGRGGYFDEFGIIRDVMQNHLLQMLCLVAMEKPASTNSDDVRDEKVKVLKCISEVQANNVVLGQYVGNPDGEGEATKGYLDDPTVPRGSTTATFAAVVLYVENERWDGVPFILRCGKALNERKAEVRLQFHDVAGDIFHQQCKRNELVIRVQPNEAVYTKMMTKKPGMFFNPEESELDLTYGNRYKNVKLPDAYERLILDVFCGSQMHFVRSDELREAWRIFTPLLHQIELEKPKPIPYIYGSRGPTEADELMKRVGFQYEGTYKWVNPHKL
row,Structure (SMILES),IC50
1,c1nc2nc[nH]c(SSc3[nH]cnc4ncnc3-4)c-2n1,30.8 µM (inactive)
2,Fc1cccc(Cl)c1CNc1ccc(N2CCCC2)cc1,> 80 µM (inactive)

# Test system: INS1
# Assay: beta cell apoptosis inhibitors, cytokine rescue, dose response, luminescence, retest (AID 449756);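 further: cell death triggered by IL-1 beta plus TNF-alpha plus IFN-gamma mixture; protective hits raise ATP signal compared with cytokine alone wells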
# Type: functional, cell-based
# Details: Rattus norvegicus
row,Structure (SMILES),AC50
1,COc1cc(C(=O)Oc2ccccc2/C=N/NC(=O)c2ccc(C)c(Cl)c2)cc(OC)c1OC,0.829 µM (active)

# Test system: not listed separately
# Assay: Luminescence Cell-Based Dose Response HTS to Identify Inhibitors of 5'UTR Stem-Loop Driven Prion Protein mRNA Translation in H4 Neuroglioblastoma Cells. [Related pubchem assays: 1827 (Project Summary), 1813 (Primary HTS)]
# Type: functional
# Details: not given
row,Structure (SMILES),EC50
1,Cc1csc(SCC(=O)c2cc(C)n(Cc3cccs3)c2C)n1,8.09 µM (active)

# Biological target: Genome polyprotein (dengue virus type 2, UniProt P29990)
# Assay: Dengue-2 NS5 methyltransferase inhibitors, primary screen, biochemical, confirmation dose response (AID 588689)
# Type: functional
# Details: not given
# Sequence of Genome polyprotein (P29990 2492-3391 limits assumed): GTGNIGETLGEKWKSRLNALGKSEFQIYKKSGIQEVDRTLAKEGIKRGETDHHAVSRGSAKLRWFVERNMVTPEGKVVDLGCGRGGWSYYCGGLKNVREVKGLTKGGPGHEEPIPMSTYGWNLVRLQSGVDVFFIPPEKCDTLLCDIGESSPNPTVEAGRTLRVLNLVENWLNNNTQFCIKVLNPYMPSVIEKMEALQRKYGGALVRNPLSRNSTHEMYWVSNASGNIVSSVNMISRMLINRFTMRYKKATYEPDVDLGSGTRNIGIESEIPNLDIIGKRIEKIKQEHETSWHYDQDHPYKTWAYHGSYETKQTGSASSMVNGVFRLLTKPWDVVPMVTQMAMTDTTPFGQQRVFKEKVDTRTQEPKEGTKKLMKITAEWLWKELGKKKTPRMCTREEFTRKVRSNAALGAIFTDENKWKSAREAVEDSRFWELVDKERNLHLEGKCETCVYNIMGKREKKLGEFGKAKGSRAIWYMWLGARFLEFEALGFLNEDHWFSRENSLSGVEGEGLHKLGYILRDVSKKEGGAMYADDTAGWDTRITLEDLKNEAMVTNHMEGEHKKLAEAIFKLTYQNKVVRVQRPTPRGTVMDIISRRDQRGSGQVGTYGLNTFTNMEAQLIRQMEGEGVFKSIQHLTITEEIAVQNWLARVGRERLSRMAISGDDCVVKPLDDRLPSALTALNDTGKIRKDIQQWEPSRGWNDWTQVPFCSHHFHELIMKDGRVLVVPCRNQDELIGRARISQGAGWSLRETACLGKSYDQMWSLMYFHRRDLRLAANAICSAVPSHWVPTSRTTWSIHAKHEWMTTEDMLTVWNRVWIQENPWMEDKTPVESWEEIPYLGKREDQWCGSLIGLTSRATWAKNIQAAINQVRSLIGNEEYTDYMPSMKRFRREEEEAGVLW
row,Structure (SMILES),IC50
1,Fc1cccc(Cl)c1CNc1ccc(N2CCCC2)cc1,35.6 µM (active)

# Test system: not listed separately
# Assay: A Cell Based Secondary Assay To Explore Cytotoxicity of Compounds that Sensitize Mycobacterium Tuberculosis to Beta-Lactam Antibiotics.
# Type: functional
# Details: not given
row,Structure (SMILES),CC50
1,COc1cc(C(=O)Oc2ccccc2/C=N/NC(=O)c2ccc(C)c(Cl)c2)cc(OC)c1OC,2.84 µM (active)

# Test system: not listed separately
# Assay: inhibitors of SNCA 5'UTR-driven reporter translation, confirmation, H4 neuroglioma cells, luminescence (AID 1988)
# Type: functional, cell-based
# Details: not given
row,Structure (SMILES),EC50
1,Cc1csc(SCC(=O)c2cc(C)n(Cc3cccs3)c2C)n1,6.24 µM (active)

# Biological target: Glyceraldehyde-3-phosphate dehydrogenase (Homo sapiens, UniProt P04406)
# Assay: not given
# Details: not given
# Sequence of Glyceraldehyde-3-phosphate dehydrogenase (P04406 whole entry): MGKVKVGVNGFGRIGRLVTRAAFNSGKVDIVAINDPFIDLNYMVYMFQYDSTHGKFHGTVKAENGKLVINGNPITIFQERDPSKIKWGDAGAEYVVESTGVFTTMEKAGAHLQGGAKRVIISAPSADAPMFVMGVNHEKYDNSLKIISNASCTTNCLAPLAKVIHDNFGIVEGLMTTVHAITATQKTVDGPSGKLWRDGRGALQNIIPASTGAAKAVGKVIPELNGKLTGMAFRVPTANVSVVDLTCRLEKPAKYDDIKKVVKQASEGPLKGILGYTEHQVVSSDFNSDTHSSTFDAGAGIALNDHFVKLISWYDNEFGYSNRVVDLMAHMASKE
row,Structure (SMILES),IC50
1,O=C1c2ccccc2C(=O)C1c1nc2ccccc2[nH]1,> 100 µM (not active)
2,COc1ccc(NS(=O)(=O)c2ccc(OC)c(OC)c2)cn1,> 100 µM (not active)
3,CC(C)c1ccc(-c2cc(C(=O)O)[nH]n2)cc1,> 100 µM (not active)
4,COc1ccc(OC)c(NS(=O)(=O)c2cnc3ccccc3c2)c1,> 10 µM (inconclusive)
5,O=C1C2CC=C(Cl)CC2C(=O)N1c1nnc[nH]1 (stereo unspecified),> 100 µM (not active)
6,Cn1ccnc1Sc1nc(Nc2ccccc2)nc(Nc2ccccc2)n1,> 100 µM (not active)
